Test results from patent publication US11628146B2, “Estrogen receptor ligand treatment for neurodegenerative diseases” (The Regents of the University of California, priority 2014, dated 2023).
“Also recorded” adds a separate entry of the source.

Assays:
[1] = system: EAE in C57BL/6 mice; assay: Standard EAE clinical score (0-5 scale), MOG 35-55 induced EAE, C57BL/6 mice; assay type: in vivo, mouse
Text: (§1) Animals. C57BL/6 and NOD mice 8 weeks old were purchased from Jackson Laboratories (Bar Harbor, Me.). Animals were maintained under environmentally controlled conditions in a 12-hour light/dark cycle with access to food and water ad libitum. All procedures were done in accordance with the guidelines of the National Institutes of Health and the Chancellor's Animal Research Committee of the University of California, Los Angeles Office for the Protection of Research Subjects.
(§2) Reagents. AC-186 was dissolved in either Miglyol 812N liquid oil (Sasol North America) or sesame oil (Sigma Aldrich) as following concentration; 1.5 mg/mL for 3 mg/kg group, 5 mg/mL for 10 mg/kg group, and 15 mg/mL for 30 mg/kg group. Diarylpropionitrile (DPN, Tocris Biosciences) was dissolved in 10% molecular-grade ethanol and diluted with 90% of either Miglyol 812N liquid oil or sesame oil.
(§3) EAE and Treatments. Animals were injected subcutaneously with Myelin Oligodendrocyte Glycoprotein (MOG), amino acids 35-55 (200 μg/animal, American Peptides), emulsified in complete Freund's adjuvant (CFA) and supplemented with Mycobacterium tuberculosis H37ra (300 μg/animal, Difco Laboratories), over two sites drained by left inguinal and auxiliary lymph nodes in a total volume of 0.1 ml/mouse. One week later, a booster immunization was delivered over contra lateral lymph nodes. Pertussis toxin (500 ng/mouse) (List Biological Laboratories, Inc.) was injected intraperitoneally on days 0 and 2. Animals were monitored daily for EAE signs based on a standard EAE 0-5 scale scoring system: 0—healthy, 1—complete loss of tail tonicity, 2—loss of righting reflex, 3—partial paralysis, 4—complete paralysis of one or both hind limbs, and 5—moribund. Animals received 0.05 ml of either of 1.5, 5, 15 mg/mL AC-186, vehicle (sesame oil or Miglyol 812N liquid oil), or DPN (8 mg/kg/day) via subcutaneous injections every other day. Animals were treated with AC-186 or vehicle after EAE induction. Specifically, treatment was initiated at the first clear signs of clinical disease (EAE day 13-15), and continued to the endpoint of the experiment.

[2] = Dissolution of the compound in the oil vehicle; assay type: physicochemical; settings: DPN; needed ethanol first
Method: as §2
Three doses of the AC-186 compound were tested in C57BL6 female mice: low (3 mg/kg, every other day), medium (10 mg/kg, every other day), and high (30 mg/kg, every other day), each injected subcutaneously in a sesame oil vehicle. The ERβ ligand diarylpropionitrile (DPN) was tested as a positive control because DPN can partially ameliorate EAE and because the treatment effects in EAE experiments can vary based on the level of disease severity within an experiment. Direct comparisons between treatments were only made between treatment groups within a single EAE experiment and not between treatment groups of different EAE experiments. […] The difference in improvement between the 30 mg/kg AC-186 group and all other groups increased with time.

[3] = system: EAE in C57BL/6 mice; assay: Rotarod testing of motor coordination and balance in EAE, C57BL/6 mice; assay type: in vivo, mouse; settings: DPN in 10% ethanol/miglyol vs miglyol vehicle (FIG. 4; strain not given)
Method: Rotarod Testing. Motor behavior was tested up to two times per week for each mouse using a rotarod apparatus (Med Associates Inc., St. Albans, Vt.). Briefly, animals were placed on a rotating horizontal cylinder for a maximum of 200 seconds. The amount of time the mouse remained walking on the cylinder, without falling, was recorded. Each mouse was tested on a speed of 3-30 rpm and given three trials for any given day. The three trials were averaged to report a single value for an individual mouse, and then averages were calculated for all animals within a given treatment group. The first two trial days prior to immunization (day 0), served as practice trials.

[4] = system: EAE in C57BL/6 mice; settings: DPN in Miglyol carrier; previous work; cited from earlier work
[5] = system: EAE in NOD mice; assay: Standard EAE clinical score (0-5 scale), MOG-induced EAE, NOD mice; assay type: in vivo, mouse; settings: NOD females; DPN in miglyol vehicle; vs vehicle
Text: as §1, §2, §3

[6] = system: spinal cords of C57BL/6 females with EAE; settings: DPN; previous experiments; cited from earlier work
[7] = system: healthy female C57BL/6 mice (no EAE induced); assay: Morris water maze (spatial memory) in ovariectomized mice; assay type: in vivo, mouse; settings: for Morris water maze learning (time in target quadrant): ovariectomized, estriol-treated mice (OVX-Estriol) vs OVX-Placebo
Method: FIG. 25. Peripheral estrogens improve performance on the Morris water maze via ERβ expressed on neurons. Healthy female C57BL/6 (with no EAE induced) were tested for cognitive performance (spatial memory) using the Morris water maze, whereby mice learn to spend more time in a target quadrant (TQ) as compared to three other quadrants (OQ). […] (Bottom graph) To determine (a) whether ER beta is required for proper learning and, more specifically, (b) whether ER beta expression in neurons is required for learning, mice were generated that had ER beta conditionally knocked out using CreLox technology, with Cre driving the knock out in neurons via the neuron-specific enolase (NSE) promoter. […] (***p≤0.001, ANOVA-Sidak's posttest). […] The dashed line on the graphs indicates the time expected to be spent in a quadrant by random chance in the absence of learning (25%).

Structure (SMILES)	EAE score ([1]; DPN in 10% ethanol/miglyol vs miglyol vehicle (FIG. 4; strain not given))	EAE score ([1]; female C57BL/6, DPN in 10% ethanol in sesame oil)	Dissolution in sesame oil [2]	Rotarod times [3]	EAE amelioration [4]	EAE score [5]	CD45 staining in the CNS [6]	Iba-1 globoid cell staining [6]	Morris water maze learning (% duration in target quadrant) ([7]; OVX-Estriol NSE-Cre:ERβ fl/fl mice (neuronal ER beta knockout), listed as Estriol)	Morris water maze learning (time in target quadrant) [7]	Morris water maze learning (time in target quadrant) ([7]; listed as Estriol)
N#CC(Cc1ccc(O)cc1)c1ccc(O)cc1 (centres unmarked) [DPN, Diarylpropionitrile, reference compound]	protects against EAE better; also recorded: better EAE scores	not effective	difficult to dissolve in sesame oil	better performance with the rotarod test	ameliorated EAE	significantly ameliorated EAE; also recorded: better EAE scores	no significant effect on CD45 staining; also recorded: no effect on CD45 or Iba-1 globoid cell staining	no effect on CD45 or Iba-1 globoid cell staining			
C[C@]12CC[C@@H]3c4ccc(O)cc4CC[C@H]3[C@@H]1C[C@@H](O)[C@@H]2O [estriol]									estrogen-mediated improvement is lost	ability to learn may be restored	improves performance
